Patent US10597399B2, “Substituted triazolopiperazine PARP inhibitor, preparation method therefor and use thereof” (Shanghai Institute of Materia Medica, Chinese Academy of …, priority 2015, dated 2020)

Assays:
[1] = tested on: Capan-1 cells (BRCA2 gene defect); assay: Inhibition of proliferation of Capan-1 cells (CCK-8 and SRB method); details: Homo sapiens, CAPAN-1, read-out: Cellular IC50 (nM) Capan-1 (BRCA2gene defect)
[2] = tested on: MDA-MB-436 cells (BRCA1 gene defect); assay: Inhibition of proliferation of MDA-MB-436 cells (CCK-8 and SRB method); details: Homo sapiens, MDA-MB-436, read-out: Cellular IC50 (nM) MDA-MB-436 (BRCA1gene defect)
[3] = tested on: Capan-1 (pancreatic cancer); assay: Proliferation of different tumor cells: Capan-1; details: Homo sapiens
Capan-1 parental cell = assay: Anti-proliferative effect on Capan-1 parental cell; details: Homo sapiens
HCC-1937 (breast cancer) = assay: Proliferation of different tumor cells: HCC-1937; details: for IC50: Homo sapiens, HCC1937
HCT-15 (colon cancer) = assay: Proliferation of different tumor cells: HCT-15; details: for IC50: Homo sapiens
[4] = background statement; cited from earlier work
[5] = tested on: Capan-1/AZD2281 drug resistant cell; assay: cells; details: Homo sapiens
[6] = tested on: UWB1.289 (ovarian cancer); assay: Proliferation of different tumor cells: UWB1.289; details: for IC50: UWB1289
SW-620 (colon cancer) = assay: Proliferation of different tumor cells: SW-620; details: for IC50: Homo sapiens
PARP-1 = PARP-1 (Homo sapiens (Human), UniProt P09874); details: PARP-1 enzyme
Sequence of PARP-1 (P09874 whole entry): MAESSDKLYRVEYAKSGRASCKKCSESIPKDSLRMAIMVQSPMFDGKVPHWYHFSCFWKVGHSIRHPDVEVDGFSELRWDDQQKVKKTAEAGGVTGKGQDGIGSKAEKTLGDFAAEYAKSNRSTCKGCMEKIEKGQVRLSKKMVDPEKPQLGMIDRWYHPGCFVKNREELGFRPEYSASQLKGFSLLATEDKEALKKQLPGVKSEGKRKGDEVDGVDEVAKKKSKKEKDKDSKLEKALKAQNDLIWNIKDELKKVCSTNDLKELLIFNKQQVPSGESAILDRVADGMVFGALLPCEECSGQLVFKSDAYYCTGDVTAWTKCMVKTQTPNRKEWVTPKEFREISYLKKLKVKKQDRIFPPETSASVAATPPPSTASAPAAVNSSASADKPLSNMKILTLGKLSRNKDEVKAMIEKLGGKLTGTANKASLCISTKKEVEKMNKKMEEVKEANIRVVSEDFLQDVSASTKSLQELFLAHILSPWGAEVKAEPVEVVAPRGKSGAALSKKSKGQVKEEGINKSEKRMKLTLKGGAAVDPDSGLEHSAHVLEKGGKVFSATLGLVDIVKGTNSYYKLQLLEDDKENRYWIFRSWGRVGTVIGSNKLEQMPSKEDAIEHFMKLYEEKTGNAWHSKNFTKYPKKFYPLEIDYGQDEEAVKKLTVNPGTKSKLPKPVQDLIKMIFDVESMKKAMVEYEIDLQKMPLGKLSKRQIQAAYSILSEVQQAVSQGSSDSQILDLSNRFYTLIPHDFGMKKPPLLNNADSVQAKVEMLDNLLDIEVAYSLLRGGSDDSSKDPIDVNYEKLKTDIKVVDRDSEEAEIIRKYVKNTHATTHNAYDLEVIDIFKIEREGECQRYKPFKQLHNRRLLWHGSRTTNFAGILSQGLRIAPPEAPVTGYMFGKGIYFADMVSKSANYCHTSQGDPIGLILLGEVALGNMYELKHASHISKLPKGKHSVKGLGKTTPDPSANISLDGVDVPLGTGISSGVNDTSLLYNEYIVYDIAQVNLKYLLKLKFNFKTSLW

Row | IC50 [2] | SMILES | IC50 [1] | further results
1 | < 20 nM | CC1CN(C(=O)c2cc(Cc3n[nH]c(=O)c4ccccc34)ccc2F)Cc2nnc(-c3ccsc3)n21 (stereo not drawn) [Compound S12] | < 20 nM | 
2 | < 20 nM | CC1CN(C(=O)c2cc(Cc3n[nH]c(=O)c4ccccc34)ccc2F)Cc2nnc(-c3cnn(C)c3)n21 (stereo not drawn) [Compound S14] | < 20 nM | 
3 | < 20 nM | CC1CN(C(=O)c2cc(Cc3n[nH]c(=O)c4ccccc34)ccc2F)Cc2nnc(-c3cnccn3)n21 (stereo not drawn) [Compound S20] | < 20 nM | 
4 | < 20 nM | CC1CN(C(=O)c2cc(Cc3n[nH]c(=O)c4ccccc34)ccc2F)Cc2nnc(-c3ncccc3F)n21 (stereo not drawn) [Compound S33] | < 20 nM | 
5 | < 20 nM | CC1CN(C(=O)c2cc(Cc3n[nH]c(=O)c4ccccc34)ccc2F)Cc2nnc(-c3c[nH]cn3)n21 (stereo not drawn) [Compound S8] | < 20 nM | 
6 | < 5 nM | CC1CN(C(=O)c2cc(Cc3n[nH]c(=O)c4ccccc34)ccc2F)Cc2nnc(-c3nccs3)n21 (stereo not drawn) [Compound S15] | < 5 nM | 
7 | < 5 nM | CC1CN(C(=O)c2cc(Cc3n[nH]c(=O)c4ccccc34)ccc2F)Cc2nnc(-c3ncc[nH]3)n21 (stereo not drawn) [Compound S9] | < 20 nM | 
8 | < 20 nM | CC1CN(C(=O)c2cc(Cc3n[nH]c(=O)c4ccccc34)ccc2F)Cc2nnc(-c3nccn3C)n21 (stereo not drawn) [Compound S10] | < 20 nM | 

Continued, compound first:

Row | SMILES | IC50 [2] | IC50 [1] | further results
9 | CC1CN(C(=O)c2cc(Cc3n[nH]c(=O)c4ccccc34)ccc2F)Cc2nnc(-c3ccco3)n21 (stereo not drawn) [Compound S16] | < 5 nM | < 5 nM | 
10 | O=C(c1cc(Cc2n[nH]c(=O)c3ccccc23)ccc1F)N1CCN(C(=O)C2CC2)CC1 [AZD2281, olaparib, reference compound] | ~200 nM | ~500 nM | IC50 [3]: 653 nM; IC50 (Capan-1 parental cell): 2899 ± 17 nM; IC50 (HCC-1937 (breast cancer)): 7390 nM; IC50 (HCT-15 (colon cancer)): > 10000 nM; bioavailability [4]: < 15%; in vivo action time and half-life time [4]: < 1 h; IC50 [5]: 41100 ± 1590 nM; IC50 [6]: 177 nM; IC50 (SW-620 (colon cancer)): 5840 nM
11 | CC1CN(C(=O)c2cc(Cc3n[nH]c(=O)c4ccccc34)ccc2F)Cc2nnc(-c3cncs3)n21 (stereo not drawn) [Compound S11] | < 20 nM | < 20 nM | 
12 | CC1CN(C(=O)c2cc(Cc3n[nH]c(=O)c4ccccc34)ccc2F)Cc2nnc(-c3cccs3)n21 (stereo not drawn) [Compound S7] | < 5 nM | < 5 nM | 
13 | C[C@@H]1CN(C(=O)c2cc(Cc3n[nH]c(=O)c4ccccc34)ccc2F)Cc2nnc(-c3ccccn3)n21 [S13-(+)] |  |  | activity of (+)-S13 relative to (−)-S13 (PARP-1): twice
14 | CC1CN(C(=O)c2cc(Cc3n[nH]c(=O)c4ccccc34)ccc2F)Cc2nnc(C3CCNCC3)n21 (stereo not drawn) [Compound S3] | < 200 nM | < 200 nM | 
15 | CC1CN(C(=O)c2cc(Cc3n[nH]c(=O)c4ccccc34)ccc2F)Cc2nnc(-c3ccccn3)n21 (stereo not drawn) [Compound S13] | < 5 nM | < 5 nM | IC50 [3]: 1.04 nM; IC50 (Capan-1 parental cell): < 0.256 nM; Ratio IC50 AZD/IC50 S13 (HCC-1937 (breast cancer); HCC-1937): 338; IC50 (HCC-1937 (breast cancer)): 21.9 nM; Ratio IC50 AZD/IC50 S13 (HCT-15 (colon cancer)): 70; IC50 (HCT-15 (colon cancer)): 143 nM; IC50 [5]: < 0.256 nM; Ratio IC50 AZD/IC50 S13 ([6]; UWB1.289): 59; IC50 [6]: 3 nM; Ratio IC50 AZD/IC50 S13 (SW-620 (colon cancer)): 130; IC50 (SW-620 (colon cancer)): 45 nM
16 | CC1CN(C(=O)c2cc(Cc3n[nH]c(=O)c4ccccc34)ccc2F)Cc2nnc(-c3ccc(CO)o3)n21 (stereo not drawn) [Compound S18] | < 5 nM | < 5 nM | 
